From patent US9763874B2, “Nanoparticles loaded with chemotherapeutic antitumoral drug” (priority 2011, dated 2017)

Tests used:
healthy Wistar rats = assay: Example 2: adverse effects after a single IV bolus injection (mortality, lung injuries); format: in vivo, rat; details: 7.5 mg/kg single IV bolus
Protocol: The aim of the present in vivo study was to establish and assess a rat model able to induce toxicological signs and lung injuries similar to severe pulmonary adverse events observed in said clinical trial.
The dose levels of 5, 7.5 and 10 mg/kg were chosen according to previous in vivo studies, they respectively correspond to 30 mg/m2, 45 mg/m2 and 60 mg/m2 human doses.
The study involved finally 123 male Wistar rats.
Rats were weighted and distributed according to their individual body weight to form […] the day of IV treatment.
Drug suspension was administered according to the body weight of rat determined just before the administration, so as to administer a dose volume of 670 μl of a 3.71 mg/ml suspension to a 250 g rat. • The rats from groups 13 to 16 received a single IV injection of Doxorubicin at 7.5 mg/kg equivalent Doxorubicin HCl (Q1Dx1). […] Solution was administered according to the body weight of rat determined just before the administration, so as to administer a dose volume of 670 μl solution to a 250 g rat. • The rats from group 21 (Untreated control group) received no treatment.
Treatment allocation was decided at random and was as disclosed in Table 2.

HCC = details: IV infusion in HCC; cited from earlier work
unresectable HCC = details: patients with unresectable HCC; cited from earlier work

SMILES	mortality and lung injuries (healthy Wistar rats)	objective response rate (HCC)	overall survival over placebo (unresectable HCC)
COc1cccc2c1C(=O)c1c(O)c3c(c(O)c1C2=O)C[C@@](O)(C(=O)CO)C[C@@H]3O[C@H]1C[C@H](N)[C@H](O)[C@H](C)O1 [Doxorubicin, doxorubicin]	Neither mortality, nor lung injuries	5-10%	–
CNC(=O)c1cc(Oc2ccc(NC(=O)Nc3ccc(Cl)c(C(F)(F)F)c3)cc2)ccn1 [sorafenib]	–	–	increase even modest
